Each structure is given as a SMILES string.

For the first test, the target named is T1, NO synthase (Rattus norvegicus, UniProt P29476).
T1 construct: the supernatant was then removed by decantation and frozen in portions at −80° C; from tissue; host or cells: rat cerebellum, 20,000 g supernatant of homogenate
Briefly: HTS-NOS assay (NOS assay): conversion of radioactive arginine, cation-exchanger filter plate. Particulars: 10 μM. The test is classed as biochemical. How it is done:
This assay enables the percentage inhibition of NO synthase by an active ingredient to be determined by measuring the NOS activity under the action of the active ingredient. NO synthase is mixed together with radioactively labelled arginine and the active ingredient under suitable conditions. After terminating the NO-forming reaction at a given time, the amount of unconverted arginine is determined directly or indirectly. A comparison of that amount with the amount of arginine that remains in a mixture of NOS and arginine without the addition of active ingredient and under otherwise identical conditions gives the % inhibition of NO synthase by the tested active ingredient. This assay can be carried out as follows:
(a) incubation of NO synthase with labelled arginine as substrate in a reaction vessel,
(b) separation of the labelled arginine from the labelled citrulline optionally formed as a product of the enzymatic reaction, at a time at which the citrulline concentration is increasing,
(c) measurement of the amount of arginine remaining in each case.
Separation is carried out over a filter plate membrane.
This NOS assay is suitable especially for “high throughput screening” (HTS) on microtitre plates (MTP).
In this HTS-NOS assay, radioactive arginine is used as substrate. The assay volume can be chosen in the range from 25 μl to 250 μl, according to the type of microtitre plate (MTP). Depending on the source of the enzyme used, co-factors and co-enzymes are added. Incubation of the batches on this microtitre plate (assay MTP) according to step (a) is carried out at room temperature and is for 5 to 60 minutes according to the enzyme activity used (units). At the end of the incubation (step (a)), the plate is placed into a cell harvester which is equipped with a MTP having a cation-exchanger membrane as the filter base (filter MTP). All batches of the assay MTP are transferred to the filter MTP and filtered off with suction over a cation-exchanger filter plate, a paper filter charged with phosphate groups. The filter MTP is then washed with buffer or water. By means of this procedure, the arginine substrate that remains is bound to the cation exchanger, while the enzymatically formed radioactive citrulline is washed out quantitatively. After drying the filter MTP and adding scintillation liquid, the bound arginine can be counted using a scintillation counter. An uninhibited NOS reaction is reflected in low radioactivity. An inhibited enzyme reaction means that the radioactive arginine has not been converted. This means that a high level of radioactivity is found on the filter.
Rat cerebella were used as the starting tissue. The animals were anaesthetized and sacrificed, the brain tissue, the cerebellum, was removed by dissection, 1 ml of enzyme preparation buffer was added per rat cerebellum (4° C.), and disintegration was carried out using a Polytron homogeniser for 1 minute at 6000 rpm, followed by centrifugation for 15 minutes at 4° C. and 20,000 g; the supernatant was then removed by decantation and frozen in portions at −80° C. (the precipitate was discarded).
96-well MTP having a well capacity of <250 μl were used.
Pipetting sequence: see Table 1.
When the pipetting operation was complete, a cover was placed on the MTP (assay MTP), and incubation was at 25° C. (room temperature (RT)) for from 5 to 60 minutes, according to the amount and activity of the enzyme used.
The contents of the assay MTP were then transferred with the aid of a 96-well cell harvester to a 96-well cation exchanger MTP (filter MTP) and filtered off with suction. This was followed by washing once with […] of H2O (from a bath).
The plate was then dried for 1 hour at 60° C. in a drying cabinet. The underside of the filter MTP was then accurately sealed from beneath with a “back seal”. 35 μl of scintillation fluid per well were then added by means of a pipette. The upper side of the plate was also sealed with a “top seal”. […]
For the compound `C#[N+]CCCCCCNc1c(-c2ccc[nH]2)nc2cc(C)cc(C)n12` [Example 4, {6-[5,7-Dimethyl-2-(1H-pyrrol-2-yl)-imidazo[1,2-a]pyridin-3-ylamino]-hexyl}-methylidyne-ammonium], the “HTS-NOS assay: % inhibition (10 μM)” value was 54%.

With `Cc1cc(C)n2c(NC(C)(C)CC(C)(C)C)c(C)nc2c1` [Example 9, (1,1,3,3-Tetramethyl-butyl)-(2,5,7-trimethyl-imidazol[1,2-a]pyridin-3-yl)-amine], the “HTS-NOS assay: % inhibition (10 μM)” value worked out at 59%.

For the compound `Cc1ccn2c(NC3CCCCC3)c(-c3ccccc3C)nc2c1` [Example 10, Cyclohexyl-(7-methyl-2-o-tolyl-imidazol[1,2-a]pyridin-3-yl)-amine], the “HTS-NOS assay: % inhibition (10 μM)” value was determined as 54%.

Regarding `Cc1ccn2c(NC3CCCCC3)c(-c3ccccc3C(F)(F)F)nc2c1` [Example 13, Cyclohexyl-[7-methyl-2-(2-trifluorO-methyl-phenyl)-imidazo[1,2-a]pyridin-3-yl]-amine], the “HTS-NOS assay: % inhibition (10 μM)” value is 57%.

Regarding `C#[N+]CCCCCCNc1c(-c2cccnc2)nc2cc(C)ccn12` [Example 19, Methylidyne-[6-(7-methyl-2-pyridin-3-yl-imidazo[1,2-a]pyridin-3-ylamino)-hexyl]-ammonium], the “HTS-NOS assay: % inhibition (10 μM)” value was 53%.

The test is the same for the next values; noted with them: read-out: HTS-NOS assay: % inhibition (10 μM).
Turning to `O=[N+]([O-])c1cccc2cn[nH]c12` [7-nitroindazole, reference compound], the inhibition (as a rule, the change of the read-out against control, counted positive when it falls) at 10 µM was determined as 50%.

For the compound `Cc1ccn2c(NC(C)(C)C)c(-c3cccnc3)nc2c1` [Example 1, Tert-butyl-(7-methyl-2-pyridin-3-yl-imidazo[1,2-a]pyridin-3-yl)-amine], the inhibition at 10 µM turned out to be 63%.

Turning to `Cc1cc(C)n2c(NC3CCCCC3)c(-c3ccncc3)nc2c1` [Example 2, Cyclohexyl-(5,7-dimethyl-2-pyridin-4-yl-imidazo[1,2-a]pyridin-3-yl)-amine], the inhibition at 10 µM is 62%.

Take `Cc1cc(C)n2c(NC(C)(C)CC(C)(C)C)c(-c3ccncc3)nc2c1` [Example 3, (5,7-Dimethyl-2-pyridin-4-yl-imidazo[1,2-a]-pyridin-3-yl)-(1,1,3,3-tetramethyl-butyl)-amine]: the inhibition at 10 µM was 60%.

Turning to `COc1cccc(-c2nc3cc(C)cc(C)n3c2NC(C)(C)C)c1OC` [Example 5, Tert-butyl-[2-(2,3-dimethoxy-phenyl)-5,7-dimethyl-imidazo[1,2-a]pyridin-3-yl]-amine], the inhibition at 10 µM was found to be 61%.

Consider `COc1ccc(-c2nc3cc(C)ccn3c2NC(C)(C)CC(C)(C)C)cc1OC` [Example 6, [2-(3,4-Dimethoxy-phenyl)-7-methyl-imidazo[1,2-a]pyridin-3-yl]-(1,1,3,3-tetramethyl-butyl)-amine], for which the inhibition at 10 µM was 53%.

Regarding `Cc1ccn2c(NC3CCCCC3)c(-c3ccncc3)nc2c1` [Example 7, Cyclohexyl-(7-methyl-2-pyridin-4-yl-imidazo[1,2-a]pyridin-3-yl)-amine], the inhibition at 10 µM worked out at 65%.

As to `Cc1cc(C)n2c(NC(C)(C)CC(C)(C)C)c(-c3ccco3)nc2c1` [Example 8, (2-Furan-2-yl-5,7-dimethyl-imidazo[1,2-a]-pyridin-3-yl)-(1,1,3,3-tetramethyl-butyl)-amine], the inhibition at 10 µM turned out to be 52%.

Consider `Cc1ccn2c(NC3CCCCC3)c(-c3cccs3)nc2c1` [Example 11, Cyclohexyl-(7-methyl-2-thiophen-2-yl-imidazo[1,2-a]pyridin-3-yl)-amine], for which the inhibition at 10 µM is 60%.

As to `Cc1cc(C)n2c(NC(C)(C)CC(C)(C)C)c(-c3cccnc3)nc2c1` [Example 12, (5,7-Dimethyl-2-pyridin-3-yl-imidazo[1,2-a]-pyridin-3-yl)-(1,1,3,3-tetramethyl-butyl)-amine], the inhibition at 10 µM worked out at 61%.

`Cc1cc(C)n2c(NC(C)(C)C)c(C)nc2c1` [Example 14, Tert-butyl-(2,5,7-trimethyl-imidazo[1,2-a]-pyridin-3-yl)-amine]: the inhibition at 10 µM was found to be 67%.

Consider `Cc1ccn2c(NC(C)(C)CC(C)(C)C)c(-c3cccnc3)nc2c1` [Example 15, (7-Methyl-2-pyridin-3-yl-imidazo[1,2-a]-pyridin-3-yl)-(1,1,3,3-tetramethyl-butyl)-amine], for which the inhibition at 10 µM was 59%.

With `Cc1ccn2c(NC3CCCCC3)c(-c3cccc4ccccc34)nc2c1` [Example 16, Cyclohexyl-(7-methyl-2-naphthalen-1-yl-imidazo[1,2-a]pyridin-3-yl)-amine], the inhibition at 10 µM worked out at 56%.

`Cc1ccn2c(NC(C)(C)CC(C)(C)C)c(-c3ccccc3F)nc2c1` [Example 17, [2-(2-Fluoro-phenyl)-7-methyl-imidazo[1,2-a]pyridin-3-yl]-(1,1,3,3-tetramethyl-butyl)-amine]: the inhibition at 10 µM is 51%.

Regarding `COC(=O)CNc1c(C)nc2cc(C)ccn12` [Example 18, (2,7-Dimethyl-imidazo[1,2-a]pyridin-3-ylamino)-acetic acid methyl ester], the inhibition at 10 µM was found to be 50%.

Consider `Cc1cc(C)n2c(NC(C)(C)C)c(-c3cccc(O)c3)nc2c1` [Example 20, 3-(3-Tert-butylamino-5,7-dimethyl-imidazo[1,2-a]pyridin-2-yl)-phenol], for which the inhibition at 10 µM stood at 64%.

On to `Cc1ccn2c(NC3CCCCC3)c(-c3ccccc3F)nc2c1` [Example 21, Cyclohexyl-(2-(2-fluoro-phenyl)-7-methyl-imidazo[1,2-a]pyridin-3-yl]-amine], for which the inhibition at 10 µM amounted to 53%.

For `Cc1cc(C)n2c(NC(C)(C)C)c(C3CCCCC3)nc2c1` [Example 22, Tert-butyl-(2-cyclohexyl-5,7-dimethyl-imidazo[1,2-a]pyridin-3-yl)-amine], the inhibition at 10 µM was 68%.

Regarding `Cc1ccn2c(NC3CCCCC3)c(-c3cccnc3)nc2c1` [Example 23, Cyclohexyl-(7-methyl-2-pyridin-3-yl-imidazo[1,2-a]pyridin-3-yl)-amine], the inhibition at 10 µM came out at 74%.

Consider `Cc1ccn2c(NC(C)(C)C)c(-c3cccc(O)c3)nc2c1` [Example 24, 3-(3-Tert-butylamino-7-methyl-imidazo[1,2-a]pyridin-2-yl)-phenol], for which the inhibition at 10 µM was 59%.

For `Cc1cc(C)n2c(NC(C)(C)C)c(-c3ccco3)nc2c1` [Example 25, Tert-butyl-(2-furan-2-yl-5,7-dimethyl-imidazo[1,2-a]pyridin-3-yl)-amine], the inhibition at 10 µM came to 60%.

As to `Cc1cc(C)n2c(NC3CCCCC3)c(-c3ccco3)nc2c1` [Example 26, Cyclohexyl-(2-furan-2-yl-5,7-dimethyl-imidazo[1,2-a]pyridin-3-yl)-amine], the inhibition at 10 µM was 62%.

With `Cc1cc(C)n2c(NC3CCCCC3)c(-c3cccnc3)nc2c1` [Example 27, Cyclohexyl-(5,7-dimethyl-2-pyridin-3-yl-imidazo[1,2-a]pyridin-3-yl)-amine], the inhibition at 10 µM is 62%.

In the case of `Cc1ccn2c(NC(C)(C)CC(C)(C)C)c(-c3ccco3)nc2c1` [Example 28, (2-Furan-2-yl-7-methyl-imidazo[1,2-a]-pyridin-3-yl)-(1,1,3,3-tetramethyl-butyl)-amine], the inhibition at 10 µM is 50%.

Regarding `Cc1ccn2c(NC(C)(C)CC(C)(C)C)c(-c3ccncc3)nc2c1` [Example 29, (7-Methyl-2-pyridin-4-yl-imidazo[1,2-a]-pyridin-3-yl)-(1,1,3,3-tetramethyl-butyl)-amine], the inhibition at 10 µM worked out at 69%.

As for `CCCCNc1c(C2CCCCC2)nc2cc(C)ccn12` [Example 30, Butyl-(2-cyclohexyl-7-methyl-imidazo[1,2-a]pyridin-3-yl)-amine], the inhibition at 10 µM came out at 56%.

Regarding `Cc1cc(C)n2c(NC(C)(C)CC(C)(C)C)c(-c3cccc(O)c3)nc2c1` [Example 31, 3-[5,7-Dimethyl-3-(1,1,3,3-tetramethyl-butylamino)-imidazo[1,2-a]pyridin-2-yl]-phenol], the inhibition at 10 µM was 60%.
